# Test results: patent US11352349B2, “Type II topoisomerase inhibitors and methods of making and using thereof” (Ohio State Innovation Foundation, priority 2017, dated 2022)
# Like-named read-outs stand apart in the source and are kept apart here.
# Experiments:
# [1] = molecular target: T1, Staphylococcus aureus Topo IV (Staphylococcus aureus, UniProt P0C1S7+P0C1U9); test: Staphylococcus aureus Topo IV decatenation assay; type: biochemical
# T1 construct: purchased Inspiralis, Norwich, UK
# Procedure: (§1) A subset of analogs was used to assess the degree of inhibition of DNA gyrase or TopoIV (Inspiralis, Norwich, UK), both to establish the mechanism of action and to evaluate the relative balance of inhibitory activities (Table 1). A subset of compound was also assayed to determine the degree of inhibition of human topoisomerase II (Inspiralis, Norwich, UK)).
# (§2) In all experiments, the activity of the enzymes was determined prior to the testing of the compounds and 1 unit (U) was defined as the amount of enzyme required to just fully supercoil, relax or decatenate the substrate (see explanation of gels). This amount of enzyme was initially used in determination of control inhibitor activity. These experiments were performed in duplicate.
# (§3) For all assays the final DMSO concentration was 1%. 10 mM stocks of the compounds were serially diluted into 10% DMSO at 1 mM, 0.5 mM, 0.25 mM, 0.1 mM, 0.05 mM, 0.01 mM, 0.005 mM, 0.001 mM, 0.0005 mM, 0.0001 mM and 0.00005 mM. 3.0 μl of each dilution was added to a 30 μl assay.
# (§4) Bands were visualised by ethidium staining for 20 minutes and destaining for 20 minutes. Gels were scanned using documentation equipment (GeneGenius, Syngene, Cambridge, UK) and % inhibition levels (where appropriate) were obtained with gel scanning software. (GeneTools, Syngene, Cambridge, UK)
# Staphylococcus aureus Topo IV Decatenation Assay
# 1 U of Topo IV was incubated with 200 ng kDNA DNA in a 30 μl reaction at 37° C. for 30 minutes under the following conditions: 50 mM Tris.HCl (7.5), 5 mM MgCl2, 5 mM DTT, 1.5 mM ATP, 350 mM potassium glutamate and 0.05 mg/ml BSA.
# Each reaction was stopped by the addition of 30 μl chloroform/iso-amyl alcohol (26:1) and 30 μl Stop Dye, before being loaded on a 1.0% TAE gel run at 70V for 2 hours.
# USA 300 strain of MRSA = test: MIC by broth microdilution, USA 300 strain of MRSA; type: cell-based, Staphylococcus aureus; settings: multiple values when multiple MIC assays were conducted; for MIC: Staphylococcus aureus, read-out: MIC USA300
# Procedure: Minimum inhibitory concentrations were determined using the quality control strain S. aureus ATCC 29213 (Table 1) by the broth microdilution method according to guidelines of the Clinical and Laboratory Standards Institute (CLSI) (Cockerill, F. R.; et al., 2012, Methods for dilution antimicrobial susceptibility tests for bacteria that grow aerobically; approved standard-ninth edition. MA07-A9. Clinical and Laboratory Standard Institute, Wayne, Pa.). […] MICs for selected compounds were also determined using a USA 300 strain of MRSA (Hidron, et al., Lancet Infect. Dis. 2009, 9:384-392). Vancomycin was used as an additional control.
# human topo II = molecular target: T2, human topo II (Homo sapiens, UniProt P11388); test: Topoisomerase II (alpha) decatenation assay; type: biochemical; settings: activity remaining at 100 μM compound; read-out: hTopoll (% activity remaining at 100 μM)
# T2 construct: purchased Inspiralis, Norwich, UK
# Procedure: as §1, §2, §3, §4
# Topoisomerase II (Alpha) Decatenation Assay
# Each reaction was stopped by the addition of 30 μl chloroform/iso-amyl alcohol (26:1) and 30 μl Stop Dye, before being loaded on a 1.0% TAE gel run at 90V for 2 hours.
# S. aureus ATCC 29213 = test: MIC by broth microdilution (CLSI), quality control strain S. aureus ATCC 29213; type: cell-based, Staphylococcus aureus; settings: multiple values when multiple MIC assays were conducted; for MIC: Staphylococcus aureus, ATCC29213, S. aureus ATCC 29213
# Procedure: Minimum inhibitory concentrations were determined using the quality control strain S. aureus ATCC 29213 (Table 1) by the broth microdilution method according to guidelines of the Clinical and Laboratory Standards Institute (CLSI) (Cockerill, F. R.; et al., 2012, Methods for dilution antimicrobial susceptibility tests for bacteria that grow aerobically; approved standard-ninth edition. MA07-A9. Clinical and Laboratory Standard Institute, Wayne, Pa.). […] Published quality control ranges for gepotidacin and ciprofloxacin were used to validate each assay. MICs for selected compounds were also determined using a USA 300 strain of MRSA (Hidron, et al., Lancet Infect. Dis. 2009, 9:384-392). Vancomycin was used as an additional control.
# [2] = molecular target: T3, Staphylococcus aureus gyrase (Staphylococcus aureus, UniProt P0A0K8+P20831); test: Staphylococcus aureus gyrase supercoiling assay; type: biochemical
# T3 construct: purchased Inspiralis, Norwich, UK
# Procedure: as §1, §2, §3, §4
# Staphylococcus aureus gyrase supercoiling
# 1 U of DNA gyrase was incubated with 0.5 μg of relaxed pBR322 DNA in a 30 μl reaction at 37° C. for 30 minutes under the following conditions: 40 mM HEPES. KOH (pH 7.6), 10 mM magnesium acetate, 10 mM DTT, 2 mM ATP, 500 mM potassium glutamate and 0.05 mg/ml BSA.
# Each reaction was stopped by the addition of 30 μl chloroform/iso-amyl alcohol (26:1) and 30 μl Stop Dye (40% sucrose (w/v), 100 mM Tris.HCl (pH 7.5), 10 mM EDTA, 0.5 μg/ml bromophenol blue), before being loaded on a 1.0% TAE gel run at 70V for 2 hours.
# [3] = S. aureus Topo IV decatenation, read-out: TopolV Decat IC50
# [4] = S. aureus DNA gyrase supercoiling, read-out: Gyrase IC50
# T3 sequence (P20831 whole entry): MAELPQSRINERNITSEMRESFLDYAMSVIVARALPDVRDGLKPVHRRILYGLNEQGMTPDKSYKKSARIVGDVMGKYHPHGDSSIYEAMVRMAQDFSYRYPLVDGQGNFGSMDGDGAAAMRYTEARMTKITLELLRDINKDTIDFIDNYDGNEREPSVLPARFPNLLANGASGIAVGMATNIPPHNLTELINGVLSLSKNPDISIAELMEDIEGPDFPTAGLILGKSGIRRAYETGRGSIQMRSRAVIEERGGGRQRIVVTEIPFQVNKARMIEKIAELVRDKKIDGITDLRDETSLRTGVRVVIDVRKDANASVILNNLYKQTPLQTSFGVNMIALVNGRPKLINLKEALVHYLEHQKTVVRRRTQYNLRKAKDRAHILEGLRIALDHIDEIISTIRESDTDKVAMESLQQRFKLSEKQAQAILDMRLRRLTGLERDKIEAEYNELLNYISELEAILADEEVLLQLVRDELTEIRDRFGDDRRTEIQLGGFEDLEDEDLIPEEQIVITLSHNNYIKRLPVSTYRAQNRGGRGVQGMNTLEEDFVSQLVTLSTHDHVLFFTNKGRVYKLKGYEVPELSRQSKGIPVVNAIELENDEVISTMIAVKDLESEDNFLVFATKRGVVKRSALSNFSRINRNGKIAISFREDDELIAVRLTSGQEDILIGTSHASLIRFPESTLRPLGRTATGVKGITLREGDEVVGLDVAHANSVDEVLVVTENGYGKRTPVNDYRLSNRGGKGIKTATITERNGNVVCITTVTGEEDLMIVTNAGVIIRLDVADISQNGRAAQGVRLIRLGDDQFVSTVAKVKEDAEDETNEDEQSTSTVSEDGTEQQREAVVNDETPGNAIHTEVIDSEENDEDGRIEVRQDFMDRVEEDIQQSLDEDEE
# T3 sequence (P0A0K8 whole entry): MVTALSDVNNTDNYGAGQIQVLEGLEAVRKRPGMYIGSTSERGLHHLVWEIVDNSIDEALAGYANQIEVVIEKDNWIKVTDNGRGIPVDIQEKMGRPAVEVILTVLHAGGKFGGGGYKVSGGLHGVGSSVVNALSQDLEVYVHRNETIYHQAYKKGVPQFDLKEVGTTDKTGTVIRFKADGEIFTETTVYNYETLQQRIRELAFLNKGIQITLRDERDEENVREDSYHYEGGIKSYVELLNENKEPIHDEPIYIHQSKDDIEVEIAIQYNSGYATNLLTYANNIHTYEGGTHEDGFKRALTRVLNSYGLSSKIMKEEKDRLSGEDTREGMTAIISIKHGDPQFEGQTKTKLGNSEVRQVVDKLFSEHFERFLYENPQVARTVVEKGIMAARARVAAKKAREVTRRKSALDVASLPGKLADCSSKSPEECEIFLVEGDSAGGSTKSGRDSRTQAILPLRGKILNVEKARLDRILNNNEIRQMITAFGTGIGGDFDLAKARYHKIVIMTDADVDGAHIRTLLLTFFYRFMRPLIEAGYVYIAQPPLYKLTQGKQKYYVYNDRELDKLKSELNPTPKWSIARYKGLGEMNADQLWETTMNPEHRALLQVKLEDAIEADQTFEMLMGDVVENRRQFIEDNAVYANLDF
# T2 sequence (P11388 whole entry): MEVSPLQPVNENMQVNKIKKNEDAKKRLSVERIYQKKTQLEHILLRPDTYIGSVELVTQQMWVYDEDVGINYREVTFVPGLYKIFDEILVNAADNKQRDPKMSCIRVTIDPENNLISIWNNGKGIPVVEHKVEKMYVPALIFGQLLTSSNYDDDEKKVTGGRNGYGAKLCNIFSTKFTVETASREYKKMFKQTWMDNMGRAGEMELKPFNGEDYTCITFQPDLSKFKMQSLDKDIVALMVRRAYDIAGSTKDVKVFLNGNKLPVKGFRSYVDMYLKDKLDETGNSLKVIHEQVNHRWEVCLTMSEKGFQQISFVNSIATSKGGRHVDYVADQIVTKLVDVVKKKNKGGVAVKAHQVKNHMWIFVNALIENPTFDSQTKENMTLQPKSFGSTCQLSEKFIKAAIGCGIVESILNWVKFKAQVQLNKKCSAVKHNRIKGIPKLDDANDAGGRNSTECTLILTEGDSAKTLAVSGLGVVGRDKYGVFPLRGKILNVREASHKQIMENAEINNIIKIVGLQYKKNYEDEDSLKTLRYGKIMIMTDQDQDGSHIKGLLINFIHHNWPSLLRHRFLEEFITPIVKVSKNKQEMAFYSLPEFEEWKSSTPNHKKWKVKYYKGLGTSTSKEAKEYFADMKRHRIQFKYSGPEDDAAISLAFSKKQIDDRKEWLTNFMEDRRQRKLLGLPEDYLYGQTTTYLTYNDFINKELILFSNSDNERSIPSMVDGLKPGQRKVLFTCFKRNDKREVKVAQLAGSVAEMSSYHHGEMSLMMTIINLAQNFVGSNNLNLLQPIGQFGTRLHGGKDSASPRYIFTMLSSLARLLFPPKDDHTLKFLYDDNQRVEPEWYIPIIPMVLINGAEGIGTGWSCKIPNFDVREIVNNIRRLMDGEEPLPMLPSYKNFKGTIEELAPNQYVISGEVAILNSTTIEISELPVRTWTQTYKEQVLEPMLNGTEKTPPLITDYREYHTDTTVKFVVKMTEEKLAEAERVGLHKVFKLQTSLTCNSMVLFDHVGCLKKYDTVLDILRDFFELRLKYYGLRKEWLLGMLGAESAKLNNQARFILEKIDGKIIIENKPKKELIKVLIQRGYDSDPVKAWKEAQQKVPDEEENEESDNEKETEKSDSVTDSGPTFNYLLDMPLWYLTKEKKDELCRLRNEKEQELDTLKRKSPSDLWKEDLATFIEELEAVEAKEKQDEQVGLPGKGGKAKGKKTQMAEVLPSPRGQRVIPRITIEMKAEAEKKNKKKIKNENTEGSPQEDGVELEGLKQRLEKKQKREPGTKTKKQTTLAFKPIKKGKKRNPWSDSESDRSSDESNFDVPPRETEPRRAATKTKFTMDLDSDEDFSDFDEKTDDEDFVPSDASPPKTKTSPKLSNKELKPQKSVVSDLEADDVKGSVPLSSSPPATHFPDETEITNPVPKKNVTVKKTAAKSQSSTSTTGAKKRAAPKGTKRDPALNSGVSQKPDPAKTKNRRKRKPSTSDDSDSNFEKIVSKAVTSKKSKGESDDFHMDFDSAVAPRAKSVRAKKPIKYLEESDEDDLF
# T1 sequence (P0C1S7 whole entry): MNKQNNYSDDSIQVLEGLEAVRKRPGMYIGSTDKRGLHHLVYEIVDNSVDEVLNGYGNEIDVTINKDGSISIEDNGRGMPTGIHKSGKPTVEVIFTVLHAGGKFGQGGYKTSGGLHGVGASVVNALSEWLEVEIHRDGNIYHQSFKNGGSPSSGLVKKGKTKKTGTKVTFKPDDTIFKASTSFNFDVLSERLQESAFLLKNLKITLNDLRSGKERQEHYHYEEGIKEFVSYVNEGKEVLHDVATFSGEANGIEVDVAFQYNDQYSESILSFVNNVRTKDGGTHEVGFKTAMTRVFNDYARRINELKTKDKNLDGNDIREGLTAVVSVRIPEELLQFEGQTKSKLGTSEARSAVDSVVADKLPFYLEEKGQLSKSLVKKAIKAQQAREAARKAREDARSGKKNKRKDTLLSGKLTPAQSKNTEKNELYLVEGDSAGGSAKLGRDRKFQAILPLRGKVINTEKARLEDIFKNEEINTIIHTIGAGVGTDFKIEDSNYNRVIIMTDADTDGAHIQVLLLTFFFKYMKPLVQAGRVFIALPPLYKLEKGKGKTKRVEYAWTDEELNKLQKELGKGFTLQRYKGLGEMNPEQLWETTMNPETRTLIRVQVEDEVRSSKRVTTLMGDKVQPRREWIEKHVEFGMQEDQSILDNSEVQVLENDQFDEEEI
# T1 sequence (P0C1U9 whole entry): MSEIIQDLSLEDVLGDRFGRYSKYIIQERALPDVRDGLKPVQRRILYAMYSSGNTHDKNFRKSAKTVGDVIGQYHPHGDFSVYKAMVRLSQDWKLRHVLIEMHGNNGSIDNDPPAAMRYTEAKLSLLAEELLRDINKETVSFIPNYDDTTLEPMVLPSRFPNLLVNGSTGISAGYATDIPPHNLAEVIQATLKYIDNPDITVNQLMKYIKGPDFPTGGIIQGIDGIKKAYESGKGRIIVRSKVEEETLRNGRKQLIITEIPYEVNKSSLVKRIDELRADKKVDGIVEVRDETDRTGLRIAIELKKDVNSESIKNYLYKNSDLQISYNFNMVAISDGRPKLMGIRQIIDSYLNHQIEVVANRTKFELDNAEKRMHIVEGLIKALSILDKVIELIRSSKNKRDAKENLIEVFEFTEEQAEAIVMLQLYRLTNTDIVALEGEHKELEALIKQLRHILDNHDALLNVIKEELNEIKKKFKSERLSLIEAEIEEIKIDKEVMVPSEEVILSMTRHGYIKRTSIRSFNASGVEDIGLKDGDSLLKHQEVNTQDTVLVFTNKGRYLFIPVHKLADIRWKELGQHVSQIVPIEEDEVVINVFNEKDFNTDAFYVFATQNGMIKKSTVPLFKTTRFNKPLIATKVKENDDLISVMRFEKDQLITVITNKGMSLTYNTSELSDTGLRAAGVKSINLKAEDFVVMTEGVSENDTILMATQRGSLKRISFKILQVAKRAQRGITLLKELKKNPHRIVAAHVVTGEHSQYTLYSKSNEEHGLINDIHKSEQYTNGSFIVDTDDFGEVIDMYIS
SMILES,IC50 [1] [nM],MIC (USA 300 strain of MRSA) [µg/mL],remaining activity at 100 µM (human topo II) [%],MIC (S. aureus ATCC 29213) [µg/mL],IC50 [2] [nM],MIC USA300 (USA 300 strain of MRSA) [µg/mL],"IC50 [1, 3] [nM]","IC50 [2, 4] [nM]",MIC 29213 (S. aureus ATCC 29213; S. aureus ATCC 29213) [µg/mL]
"COc1ccc2ncc(F)c(CC[C@H]3OC[C@H](NCc4ccc5c(c4)OCCO5)CO3)c2n1 [AB-0015, N-((2,3-dihydrobenzo[b][1,4]dioxin-6-yl)methyl)-2-(2-(3-fluoro-6-methoxy-1,5-naphthyridin-4-yl)ethyl)-trans-1,3-dioxan-5-amine]",980,0.125,55,≤ 0.25,30,–,–,–,–
"COc1ccc2ncc(F)c(C(O)C[C@H]3OC[C@H](NCc4ccc5c(c4)OCCO5)CO3)c2c1 (stereo partly drawn) [AB-0016, 2-(5-(((2,3-dihydrobenzo[b][1,4]dioxin-6-yl)methyl)amino)-trans-1,3-dioxan-2-yl)-1-(3-fluoro-6-methoxyquinolin-4-yl)ethan-1-ol]",7980,0.25,77.4,0.125,90,0.25,–,–,–
COc1ccc2ncc(F)c(CC[C@H]3OC[C@H](NCc4cc5c(cn4)OCCC5)CO3)c2n1 [AB-0018],–,0.25,79.8,≤ 0.25,–,–,5330,160,–
"COc1ccc2ncc(F)c(C(O)C[C@H]3OC[C@H](NCc4cc5c(cn4)OCCC5)CO3)c2c1 (stereo partly drawn) [AB-0020, 2-(5-(((3,4-dihydro-2H-pyrano[2,3-c]pyridin-6-yl)methyl)amino)-trans-1,3-dioxan-2-yl)-1-(3-fluoro-6-methoxyquinolin-4-yl)ethan-1-ol]",–,1,92.9,0.5,–,–,15200,130,–
"COc1ccc2nccc(CC[C@H]3OC[C@H](NCc4ccc5c(n4)NC(=O)CS5)CO3)c2c1 [AB-0021, 6-(((2-(2-(6-methoxyquinolin-4-yl)ethyl)-trans-1,3-dioxan-5-yl)amino)methyl)-2H-pyrido[3,2-b][1,4]thiazin-3(4H)-one]",–,0.5,91.1,0.5,–,–,> 100000,590,–
"COc1ccc2nccc(CC[C@H]3OC[C@H](NCc4ccc(Cl)c(F)c4)CO3)c2c1 [AB-0030, N-(4-chloro-3-fluorobenzyl)-2-(2-(6-methoxyquinolin-4-yl)ethyl)-trans-1,3-dioxan-5-amine]",–,1,97.8,2,–,–,> 100000,950,–
COc1ccc2nccc(CC[C@H]3OC[C@H](NC/C=C/c4ccccc4)CO3)c2c1 [AB-0051],–,1,93.7,1,–,–,50000 to 100000,420,–
"COc1ccc2nccc(CC[C@H]3OC[C@H](NCc4ccc(Cl)cc4)CO3)c2c1 [AB-0052, N-(4-chlorobenzyl)-2-(2-(6-methoxyquinolin-4-yl)ethyl)-trans-1,3-dioxan-5-amine]",–,4,97.8,1,–,–,> 100000,1160,–
"COc1ccc2nccc(CC[C@H]3OC[C@H](NCc4ccc5c(n4)NC(=O)CO5)CO3)c2c1 [AB-0055, 6-(((2-(2-(6-methoxyquinolin-4-yl)ethyl)-trans-1,3-dioxan-5-yl)amino)methyl)-2H-pyrido[3,2-b][1,4]oxazin-3(4H)-one]",–,1,99.1,0.5,–,–,> 100000,780,–
"COc1ccc2nccc(CC[C@H]3OC[C@H](NCc4ccc5c(c4)NC(=O)CO5)CO3)c2c1 [AB-0057, 6-(((2-(2-(6-methoxyquinolin-4-yl)ethyl)-trans-1,3-dioxan-5-yl)amino)methyl)-2H-benzo[b][1,4]oxazin-3(4H)-one]",–,1,93,1,–,–,> 100000,740,2
"COc1ccc2ncc(F)c(CC[C@H]3OC[C@H](NCc4ccc5c(n4)NC(=O)CS5)CO3)c2n1 [AB-0059, 6-(((2-(2-(3-fluoro-6-methoxy-1,5-naphthyridin-4-yl)ethyl)-trans-1,3-dioxan-5-yl)amino)methyl)-2H-pyrido[3,2-b][1,4]thiazin-3(4H)-one]",–,0.25,95.7,≤ 0.5,–,–,> 100000,170,–
COc1ccc2ncc(F)c(CC[C@H]3OC[C@H](NCc4ccc5c(n4)NC(=O)CO5)CO3)c2n1 [AB-0060],5000 to 10000,0.25,83.1,0.125,130,–,–,–,–
"COc1ccc2ncc(F)c(CC[C@H]3OC[C@H](NCc4cc5c(cn4)OCCO5)CO3)c2n1 [AB-0061, N-((2,3-dihydro-[1,4]dioxino[2,3-c]pyridin-7-yl)methyl)-2-(2-(3-fluoro-6-methoxy-1,5-naphthyridin-4-yl)ethyl)-trans-1,3-dioxan-5-amine]",–,0.25,69.6,0.125,–,–,61000,420,–
"COc1ccc2ncc(F)c(CC[C@H]3OC[C@H](NCc4ccc(F)c(F)c4)CO3)c2n1 [AB-0062, N-(3,4-difluorobenzyl)-2-(2-(3-fluoro-6-methoxy-1,5-naphthyridin-4-yl)ethyl)-trans-1,3-dioxan-5-amine]",–,4,90.7,2,–,–,> 100000,4430,–
